The structures appear in SMILES notation.

Consider `CNc1nc(-c2cccc(NC(=O)c3ccc(S(C)(=O)=O)cc3)c2)c2cc(OC)c(OC)cc2n1` [Example 28, 6,7-Dimethoxy-2-methylamino-4-[3-(4-methylsulfonylbenzoylamino)phenyl]quinazoline], for which the melting point (in general, the temperature, or range, at which the solid turns liquid) was in the range of 277 to 279 °C.

In turn, `CNc1nc(-c2cccc(NC(=O)c3ccc(Cl)c(Cl)c3)c2)c2cc(OC)c(OC)cc2n1` [Example 15, 4-[3-(3,4-Dichlorobenzoylamino)phenyl]-6,7-dimethoxy-2-methylaminoquinazoline] had a melting point of 134 to 136 °C.

In turn, `CNc1nc(-c2cccc(C#Cc3cccnc3)c2)c2cc(OC)c(OC)cc2n1` [Example 67, 6,7-Dimethoxy-2-methylamino-4-[3-[2-(3-pyridyl)ethynyl]phenyl]quinazoline] gave a melting point of 103 to 105 °C.

Take `CNc1nc(-c2cccc(NC(=O)c3ccc(OC)cc3)c2)c2cc(OC)c(OC)cc2n1` [Example 13, 6,7-Dimethoxy-4-[3-(4-methoxybenzoylamino)phenyl]-2-methylaminoquinazoline]: the melting point was in the range of 219 to 221 °C.

For `CNc1nc(-c2cccc(NC(=O)C3CC3)c2)c2cc(OC)c(OC)cc2n1` [Example 16, 4-(3-Cyclopropanoylaminophenyl)-6,7-dimethoxy-2-methylaminoquinazoline], the melting point is 205 to 207 °C.

In the case of `CNc1nc(-c2cccc(-c3cccnc3)c2)c2cc(OC)c(OC)cc2n1` [Example 47, 6,7-Dimethoxy-2-methylamino-4-[3-(3-pyridyl)phenyl]quinazoline], the melting point fell in the range of 186 to 188 °C.

In turn, `CNc1nc(-c2cccc(NC(=O)c3ccccc3)c2)c2cc(OC)c(OC)cc2n1` [Example 1, 4-(3-Benzoylaminophenyl)-6,7-dimethoxy-2-methylaminoquinazoline] came in with a melting point of 201 to 203 °C.

The molecule `CNc1nc(-c2cccc(NC(=O)c3ccccn3)c2)c2cc(OC)c(OC)cc2n1` [Example 3, 6,7-Dimethoxy-2-methylamino-4-[3-(2-pyridinecarbonylamino)phenyl]quinazoline] had a melting point of 175 to 177 °C.

In turn, `CNc1nc(-c2cncc(Br)c2)c2cc(OC)c(OC)cc2n1` [Example 76, 4-(5-Bromo-3-pyridyl)-6,7-dimethoxy-2-methylaminoquinazoline] had a melting point of 228 to 230 °C.

For `CNc1nc(-c2cccc(NS(=O)(=O)c3ccccc3)c2)c2cc(OC)c(OC)cc2n1` [Example 35, 4-(3-Benzenesulfonamidephenyl)-6,7-dimethoxy-2-methylaminoquinazoline], the melting point is 230 to 232 °C.

`CNc1nc(-c2cccc(NC(=O)c3ccccc3OC)c2)c2cc(OC)c(OC)cc2n1` [Example 11, 6,7-Dimethoxy-4-[3-(2-methoxybenzoylamino)phenyl]-2-methylaminoquinazoline] gave a melting point of 194 to 196 °C.

Regarding `CNc1nc(-c2cccc(NC(=O)Cc3ccccc3)c2)c2cc(OC)c(OC)cc2n1` [Example 6, 6,7-Dimethoxy-2-methylamino 4-[3-(phenylacetylamino)phenyl]quinazoline], the melting point lay within 175 to 177 °C.

As for `CNc1nc(-c2cccc(NC(=O)c3cccc(OC)c3)c2)c2cc(OC)c(OC)cc2n1` [Example 12, 6,7-Dimethoxy-4-[3-(3-methoxybenzoylamino)phenyl]-2-methylaminoquinazoline], the melting point was 193 to 195 °C.

`CNc1nc(-c2cccc(NC(=O)c3ccc4c(c3)OCO4)c2)c2cc(OC)c(OC)cc2n1` [Example 5, 6,7-Dimethoxy-2-methylamino-4-[3-(3,4-methylenedioxybenzoylamino)phenyl]quinazoline]: the melting point fell in the range of 205 to 207 °C.

With `CNc1nc(-c2cccc(NC(=O)c3ccccc3)c2)c2cc(O)c(OC)cc2n1` [Example 82, 4-(3-Benzoylaminophenyl)-6-hydroxy-7-methoxy-2-methylaminoquinazoline], the melting point was 145 to 147 °C.

Molecule `CNc1nc(-c2cccc(C(=O)Nc3cccnc3)c2)c2cc(OC)c(OC)cc2n1` [Example 71, 6,7-Dimethoxy-2-methylamino-4-[3-(3-pyridyl)carbamoylphenyl]quinazoline] registered a melting point of 238 to 240 °C.

`CNc1nc(-c2cccc(-c3cncc(OC)c3)c2)c2cc(OC)c(OC)cc2n1` [Example 57, 6,7-Dimethoxy-4-[3-(5-methoxy-3-pyridyl)phenyl]-2-methylaminoquinazoline] gave a melting point of 225 to 227 °C.

Take `CNc1nc(-c2cccc(NC(=O)c3ccccc3Cl)c2)c2cc(OC)c(OC)cc2n1` [Example 8, 4-[3-(2-Chlorobenzoylamino)phenyl]-6,7-dimethoxy-2-methylaminoquinazoline]: the melting point is 197 to 199 °C.

Turning to `CNc1nc(-c2cccc(NC(=O)CCc3ccccc3)c2)c2cc(OC)c(OC)cc2n1` [Example 7, 6,7-Dimethoxy-2-methylamino-4-[3-(3-phenylpropanoylamino)phenyl]quinazoline], the melting point lay in the range of 180 to 182 °C.

`CNc1nc(-c2cccc(NC(=O)c3ccc([S+](C)[O-])cc3)c2)c2cc(OC)c(OC)cc2n1` (stereo not drawn) [Example 27, 6,7-Dimethoxy-2-methylamino-4-[3-(4-methylsulfinylbenzoylamino)phenyl]quinazoline] displayed a melting point of 246 to 248 °C.

`CNc1nc(-c2cccc(NC(=O)c3ccc(SC)cc3)c2)c2cc(OC)c(OC)cc2n1` [Example 26, 6,7-Dimethoxy-2-methylamino-4-[3-(4-methylthiobenzoylamino)phenyl]quinazoline] showed a melting point of 209 to 211 °C.

`CNc1nc(-c2cccc(NC(=O)c3ccccc3OCc3ccccc3)c2)c2cc(OC)c(OC)cc2n1` [Example 24, 4-[3-(2-Benzyloxybenzoylamino)phenyl]-6,7-dimethoxy-2-methylaminoquinazoline]: the melting point was in the range of 192 to 194 °C.

`CNc1nc(-c2cccc(-c3ccc4nccn4c3)c2)c2cc(OC)c(OC)cc2n1` [Example 50, 6,7-Dimethoxy-4-[3-(imidazo[1.2-a]pyridine-6-yl)phenyl]-2-methylaminoquinazoline] showed a melting point of 237 to 239 °C.

For the molecule `CNc1nc(-c2cccc(C(=O)Nc3ccccc3)c2)c2cc(OC)c(OC)cc2n1` [Example 70, 6,7-Dimethoxy-2-methylamino-4-(3-phenylcarbamoylphenyl)quinazoline], the melting point lay in the range of 242 to 244 °C.

Molecule `CNc1nc(-c2cccc(NC(=O)c3cccc(O)c3)c2)c2cc(OC)c(OC)cc2n1` [Example 23, 6,7-Dimethoxy-4-[-(3-hydroxybenzoylamino)phenyl]-2-methylaminoquinazoline] gave a melting point of 265 to 267 °C.

The molecule `CNc1nc(-c2cccc(NC(=O)c3cc(OC)c(OC)c(OC)c3)c2)c2cc(OC)c(OC)cc2n1` [Example 19, 6,7-Dimethoxy-4-methylamino-4-[3-(3,4,5-trimethoxybenzoylamino)phenyl]quinazoline] showed a melting point of 122 to 124 °C.

For `CNc1nc(-c2cccc(NC(=O)c3ccc(OCc4ccccc4)cc3)c2)c2cc(OC)c(OC)cc2n1` [Example 20, 4-[3-(4-Benzyloxybenzoylamino)phenyl]-6,7-dimethoxy-2-methylaminoquinazoline], the melting point was 110 to 112 °C.

For the origin of these results see patent US6352989B1, “Nitrogenous heterocyclic derivatives and medicine thereof” (Eisai Co., Ltd., priority 1998, dated 2002).
